Experimental data from paper PMC8851282, “Senolysis induced by 25-hydroxycholesterol targets CRYAB in multiple cell types” (iScience, 2022).

Columns and labels:
[1] = tested on: Cdkn1a mRNA and SASP factors in skeletal muscle; experiment: qRT-PCR of senescence markers, Cryab and SASP factors in skeletal muscles of aged mice given 25HC; type: in vivo, mouse
[2] = tested on: human renal proximal tubule epithelial cells (hRPTECs); experiment: Cell viability assay of NS and Doxo- or IR-induced senescent hRPTECs treated with 25HC; type: cell-based; conditions: 5 μM after 9 days; Doxo or IR induced senescence
Method: Figure 7 25HC treatment timeline and its effects on NS and SEN hCMECs, hLSCs, hRPTECs, and hACs All cell types were treated with either DMSO, 250 nM Doxo or 10-Gy IR at the times shown. 25HC treatment was started 24 h after Doxo or IR treatment. Cell viability was measured every 3–5 days for 15 days. Optimal treatment times for maximum senolysis are shown for each cell type: day 15 for hCMECs, day 3 for hLSCs, day 9 for hRPTECs and day 12 for hACs. For qRT-PCR: mean ± SE, n =4, ∗p< 0.05, ∗∗p< 0.01, ∗∗∗p<0.001, ∗∗∗∗p<0.0001 by Dunnett’s multiple comparisons test vs DMSO or NS, For cell viability assays: mean ± SE, n =3, ∗∗p< 0.01, ∗∗∗p<0.001, ∗∗∗∗p<0.0001 vs 0 mM by student’s t test.
All experiments were performed in incubators at 37 °C, 3% O2 and 5% CO2. […]
Cell viability was assessed using a cell counting kit-8 from Dojindo Molecular Technologies, Inc (Cat CK04-20). […] The supernatant was transferred to a new 96-well plate and absorbance read at 450 nm as recommended in the product datasheet. […]
Supplementary Fig. 12 (related to Fig. 7) | 25HC treatment of human renal epithelial cells (a) 25HC effects on DMSO- or Doxo-treated hRPTECs at various times. […] Cel l vi abi l i ty was measured every 3–5 days until 15 days. […]
Cells were NS or treated with 10-Gy X-rays. […] Cell viability was measured every 3–5 days until 15 days. […]

[3] = tested on: human lung fibroblasts (IMR-90); experiment: Cell viability assay of NS and SEN IMR-90 cells treated with CRYAB and HMOX1 inhibitors; type: cell-based; conditions: 250 nM Doxo-induced senescence; viability after 72 h; 25HC at 10 or 50 μM
Method: The average value of DMSO was set at 1. (B and D) Effects of CRYAB and HMOX1 inhibitors on DMSO-treated NS or Doxo-treated SEN cells; (B) mDFs, (D) IMR-90s. Cells were treated with the inhibitors at the indicated concentrations. Cell viability was measured after 72 h. (C) IMR-90 qRT-PCR. For qPCR: mean +/- SE, n =4, ∗p< 0.05, ∗∗p< 0.01, ∗∗∗p<0.001, ∗∗∗∗p<0.0001 by Dunnett’s multiple comparisons test vs DMSO. For cell viability assays: mean +/- SE, n =3, ∗∗p< 0.01, ∗∗∗p<0.001, ∗∗∗∗p<0.0001 vs 0 mM by student’s t test.
All experiments were performed in incubators at 37 °C, 3% O2 and 5% CO2. Senescence was induced by treatment with either Doxo (250 nM for 24 h) ([Demaria et al., 2017]) or X-irradiation (10 Gy) ([Limbad et al., 2020]). For cell culture studies using 25HC, it was used at the indicated concentrations in the media.
IMR-90 cells were cultured in DMEM with 10% FBS. […]
Cell viability was assessed using a cell counting kit-8 from Dojindo Molecular Technologies, Inc (Cat CK04-20). […] The supernatant was transferred to a new 96-well plate and absorbance read at 450 nm as recommended in the product datasheet.

[4] = tested on: 15-d-PGJ2; experiment: 15-d-PGJ2 ELISA in urine of aged mice given 25HC; type: in vivo, mouse; conditions: 24–26-month-old mice, both genders; urine 12 h after the first treatment with 25HC 50 mg/kg i.p., relative to controls
Method: Figure 9 25HC is an in vivo senolytic in tissues of aged mice (A) Timeline of 25HC treatment in aged mice. Young (5 months old) and old (24–26 months old) mice were treated with 25HC or vehicle for 5 consecutive days. (B) Mass of gastrocnemius muscles in male and female mice. Muscle weight was normalized to body weight. (C) Cdkn1a and Cryab mRNA levels in gastrocnemius (Gastroc) and soleus (Sol) muscles. RNA was collected at 7–9 d after the first treatment with 25HC or vehicle. mRNA levels of the indicated genes were quantified by qRT-PCR, and normalized to those of actin mRNA. The average value of young-vehicle was set at 1. (D) 15-d-PGJ2 analysis in urine. […]
Two groups of male and female C57BL/6J mice were used. […] Senescence markers and CRYAB were analyzed using mRNA from gastrocnemius (Gastroc), soleus (So), tibialis anterior (TA), visceral fat (VF), kidney (Ki), liver (Li), lung (Lu), heart (He), and skin (Sk) samples using qRT-PCR (Figures S14, S15, S16, S17, and S18).
Urine was collected at 12 or 24 h after the first treatment with 25HC or vehicle and diluted 10-fold with assay buffer. The amount of 15-d-PGJ2 was measured using a 15-deoxy-Δ^12,14-PGJ2 ELISA kit according to manufactures’ protocol (Enzo Life Sciences).

C[C@H](CCCC(C)(C)O)[C@H]1CC[C@H]2[C@@H]3CC=C4C[C@@H](O)CC[C@]4(C)[C@H]3CC[C@]12C [25HC, 25-hydroxycholesterol]
Cdkn1a mRNA induction by aging in gastrocnemius and soleus muscles ([1]; 24–26-month-old mice, both genders, 25HC 50 mg/kg i.p. for 5 days): significantly reduced
expression of SASP factors, including IL6, in skeletal muscle ([1]; mice treated with 25HC (Figures S17 and S18)): substantially inhibited
senolysis in hRPTECs [2]: induced significant senolysis
senolysis in IMR-90 cells [3]: induced significant senolysis
15-d-PGJ2 level in urine [4]: greater
